Test results: patent US11198680B2 (BioAxone BioSciences, Inc., priority 2016, dated 2021)
Like-named read-outs stand apart in the source and are kept apart here.

Tests used:
[1] = target: T1, ROCK2 (Homo sapiens (Human), UniProt O75116); test: ROCK2 inhibition curves, MYPT1 substrate plate assay; type: biochemical; settings: purified ROCK2, MYPT1 substrate
Protocol: Each compound was dissolved at 100 mM in DMSO. This compound-DMSO solution is diluted to 500 μM in dH2O. Serial dilutions were prepared so that a semi-log range of compound is present after being diluted 5× in other assay reagents, from 100 μM through 1 nM.
10 μL of each concentration of each compound was added in duplicate to individual wells of a 96-well Maxisorp plate (ThermoFisher) pre-coated with the ROCK2 substrate MYPT1 (ThermoFisher). dH2O is added as a negative control.
Using a multichannel pipettor, […] of final volume per well was made by the addition of the following of each solution to begin the reaction: 10 μL 20 mM MOPS pH 7.2, 25 mM β-glycerophosphate, 5 mM EGTA, 1 mM Na3VO4, and 1 mM DTT, 10 μL 50 μM ATP, 10 μL 75 mM MgCl2, and 10 μL 1 mU/μL ROCK2 solution. […]
100 μL TMB/E solution was added to each well with a multichannel pipette. Upon sufficient color development, the reaction was stopped using 100 μL stop solution and absorbance read using a Wallac Victor2 plate reader at 450 nm.
Because absorbance values proportional to ROCK2 activity, plotting absorbance at 450 nm versus final concentration of metabolite and parent compound provides inhibition curves. Relative inhibitory profiles were determined through 4PL analysis of these curves. Variations in calculated IC50 are common before assay optimization due to variations in experimental variables.

[2] = system: Rho/ROCK activity (MLC2 diphosphorylation) in human brain microvascular endothelial cells; test: LPA-treated hBMVECs, pMLC2 T18/S19 immunoblot; type: cell-based; settings: 20 μM LPA, Example 16, present tense
Protocol: Cells are exposed to each dose for 1 hr, and are then stimulated with 20 μM LPA for either 5 min or 1 hr as described below. All experiments are conducted in triplicate and analyzed by 2 independent assessors blinded to both cell line and treatment.
Cells are subjected to biochemical analysis of diphosphorylated MLC2 (Threonine 18/Serine 19 phosphorylation sites) and phosphorylated cofilin (Serine 9 phosphorylation site) using SDS-PAGE and immunoblotting. Cells are plated in 24-well tissue culture plates coated with 70 μg/ml rat collagen-1 (Corning) and grown in ENDO-growth media (Neuromics) for 3 days at 37° C./5% CO2 until confluency. […] The medium is exchanged for ENDO basal media supplemented with 1% HSA, 20 μM of LPA (Santa Cruz Biotech; Santa Cruz, Calif.) and the appropriate amount of compound being tested. After 5 min, the medium is aspirated and the cells are briefly washed with 1×PBS. Proteins are extracted from cells by lysis with RIPA buffer supplemented with complete protease/phosphatase inhibitor (HALT, Thermo Fisher Scientific), reduced and denatured using Laemmli sample buffer (BioRad; Hercules, Calif., beta-mercaptoethanol and subjected to SDS-PAGE.
Denatured samples are electrophoresed in reducing 10% Bis-Tris-PA gels (Novex; Thermo-Fisher), and are transferred onto 0.25 μm PVDF membranes (EMD Millipore). Membranes are probed using amti-pMLC2 T18/S19 (1:500; Cell Signaling) or anti-pCofilin (1:500, Cell Signaling S9) and anti-glyceraldehyde 3-phosphate dehydrogenase loading control (GAPDH, 1:10000; Abcam, Cambridge, Mass.). Protein levels are detected using a chemiluminescence substrate (Super Signal West, ThermoFisher) and images are captured using a FluoroChem SP Imaging System.

[3] = system: ROCK1; settings: percent of negative control binding; second row printed ROCK1, text says ROCK1 and ROCK2
Description: (§1) The KINOMEscan™ screening platform (DiscoverX, Fremont, Calif.) employs a novel active site-directed competition binding assay to quantitatively measure interactions between test compounds and more than 450 human kinases and disease relevant mutant variants. […] Compounds that bind the kinase active site and directly (sterically) or indirectly (allosterically) prevent kinase binding to the immobilized ligand, will reduce the amount of kinase captured on the solid support. […] Screening “hits” are identified by measuring the amount of kinase captured in test versus control samples by using a quantitative, precise and ultra-sensitive qPCR method that detects the associated DNA label.
(§2) Kinase-tagged T7 phage strains were grown in parallel in 24-well blocks in an E. coli host derived from the BL21 strain. E. coli were grown to log-phase and infected with T7 phage from a frozen stock (multiplicity of infection=0.4) and incubated with shaking at 32° C. until lysis (90-150 minutes). The lysates were centrifuged (6,000×g) and filtered (0.2 μm) to remove cell debris. The remaining kinases were produced in HEK-293 cells and subsequently tagged with DNA for qPCR detection (Wein, et al. (2016) Nat. Comm. 7). […] Test compounds were prepared as 40× stocks in 100% DMSO and directly diluted into the assay. All reactions were performed in polypropylene 384-well plates in a final volume of 0.02 ml.

[4] = system: GCN; test: KINOMEscan kinome screen; set-up: species or system human; settings: percent of negative control binding
Description: as §1, §2

[5] = system: AMPK (1 and 2); test: KINOMEscan kinome screen; set-up: species or system human; settings: percent of negative control binding; 100% equals no interference
Description: as §1, §2

[6] = target: T1, ROCK2; test: biochemical
Protocol: (§3) The assay is performed by combining the DNA-tagged kinase, immobilized ligand, and a test compound. The ability of the test compound to compete with the immobilized ligand is measured via quantitative PCR of the DNA tag.
(§4) The highest concentration tested was 30 μM.

[7] = target: ROCK1 (Homo sapiens (Human), UniProt Q13464); test: biochemical
Protocol: as §3, §4

[8] = target: T1, ROCK2; test: Direct filter-binding radiometric kinase assay, IC50 determination; type: biochemical
[9] = system: human hepatocytes; test: Metabolism in cultured hepatocytes; type: in vitro ADME
[10] = target: 5-HT2b-receptor (Homo sapiens (Human), UniProt P41595); test: SAFETYscan off-target panel; type: cell-based; settings: 10 μM
Protocol: The SAFETYscan™ (DiscoverX) is used for rapid testing of any compound against a panel that includes well-known membrane proteins of importance for drug development such as selected voltage-gated ion channels, G-protein coupled receptors, neurotransmitter transporters and also a selected group of purified cellular enzymes.
Cell lines engineered to express individual transmembrane receptor proteins such as the muscarinic acetylcholine receptor or the dopamine D1 receptor were grown in culture in their standard growth medium until reaching confluence. […] The experiment also contains controls for comparison including known agonists and antagonists of the targeted membrane proteins.
For assays using purified enzymes, an enzyme assay is set up in standard reaction buffer and necessary indicators for activity such as co-factors, buffers and synthetic substrates. […] As positive controls, a binding assay using Rho kinase (ROCK) was included in the panel. Other targets in the panel included G-protein coupled receptors, nuclear hormone receptors, intracellular non-kinase enzymes, ion channels, and neurotransmitter transporters. The specific targets were chosen because of their previous known associations with being the source of problematic off-target effects in cellular or whole animal studies.

ROCK1 (Homo sapiens (Human), UniProt Q13464), sequence (Q13464 2-1354 limits assumed): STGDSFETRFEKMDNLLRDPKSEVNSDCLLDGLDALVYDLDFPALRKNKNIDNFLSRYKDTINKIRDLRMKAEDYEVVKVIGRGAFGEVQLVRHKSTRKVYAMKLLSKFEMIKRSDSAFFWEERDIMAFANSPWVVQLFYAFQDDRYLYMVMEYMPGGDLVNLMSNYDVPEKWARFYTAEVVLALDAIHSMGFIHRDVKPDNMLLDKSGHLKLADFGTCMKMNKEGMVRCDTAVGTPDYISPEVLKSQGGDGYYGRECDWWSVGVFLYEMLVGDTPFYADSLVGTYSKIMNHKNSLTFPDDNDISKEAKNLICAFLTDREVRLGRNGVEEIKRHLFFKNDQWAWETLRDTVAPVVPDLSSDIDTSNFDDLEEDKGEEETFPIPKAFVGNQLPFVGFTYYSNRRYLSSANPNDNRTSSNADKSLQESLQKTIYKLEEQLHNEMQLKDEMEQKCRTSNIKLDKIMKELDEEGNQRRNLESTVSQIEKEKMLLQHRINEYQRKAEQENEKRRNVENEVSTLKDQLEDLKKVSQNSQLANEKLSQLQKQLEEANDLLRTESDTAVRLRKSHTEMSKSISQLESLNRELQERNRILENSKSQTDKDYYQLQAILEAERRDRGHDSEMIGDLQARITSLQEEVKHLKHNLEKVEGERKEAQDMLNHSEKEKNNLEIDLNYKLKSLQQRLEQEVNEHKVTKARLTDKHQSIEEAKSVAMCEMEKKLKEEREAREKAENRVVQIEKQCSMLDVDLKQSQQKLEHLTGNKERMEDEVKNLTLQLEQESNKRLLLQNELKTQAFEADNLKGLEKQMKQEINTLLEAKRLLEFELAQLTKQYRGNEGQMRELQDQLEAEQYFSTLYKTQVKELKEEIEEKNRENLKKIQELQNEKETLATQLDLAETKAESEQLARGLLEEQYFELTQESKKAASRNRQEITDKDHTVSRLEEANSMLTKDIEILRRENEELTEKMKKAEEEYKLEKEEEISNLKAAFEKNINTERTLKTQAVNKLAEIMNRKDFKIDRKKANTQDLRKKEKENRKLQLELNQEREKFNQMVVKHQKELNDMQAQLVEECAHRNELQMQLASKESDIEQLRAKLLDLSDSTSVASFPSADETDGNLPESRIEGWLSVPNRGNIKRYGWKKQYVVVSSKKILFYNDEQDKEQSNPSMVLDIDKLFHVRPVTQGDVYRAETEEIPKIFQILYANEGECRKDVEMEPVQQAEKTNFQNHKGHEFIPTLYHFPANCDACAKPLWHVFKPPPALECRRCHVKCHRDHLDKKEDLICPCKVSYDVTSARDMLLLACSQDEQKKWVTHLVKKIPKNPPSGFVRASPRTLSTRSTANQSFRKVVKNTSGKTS
T1 sequence (O75116 whole entry, species assumed): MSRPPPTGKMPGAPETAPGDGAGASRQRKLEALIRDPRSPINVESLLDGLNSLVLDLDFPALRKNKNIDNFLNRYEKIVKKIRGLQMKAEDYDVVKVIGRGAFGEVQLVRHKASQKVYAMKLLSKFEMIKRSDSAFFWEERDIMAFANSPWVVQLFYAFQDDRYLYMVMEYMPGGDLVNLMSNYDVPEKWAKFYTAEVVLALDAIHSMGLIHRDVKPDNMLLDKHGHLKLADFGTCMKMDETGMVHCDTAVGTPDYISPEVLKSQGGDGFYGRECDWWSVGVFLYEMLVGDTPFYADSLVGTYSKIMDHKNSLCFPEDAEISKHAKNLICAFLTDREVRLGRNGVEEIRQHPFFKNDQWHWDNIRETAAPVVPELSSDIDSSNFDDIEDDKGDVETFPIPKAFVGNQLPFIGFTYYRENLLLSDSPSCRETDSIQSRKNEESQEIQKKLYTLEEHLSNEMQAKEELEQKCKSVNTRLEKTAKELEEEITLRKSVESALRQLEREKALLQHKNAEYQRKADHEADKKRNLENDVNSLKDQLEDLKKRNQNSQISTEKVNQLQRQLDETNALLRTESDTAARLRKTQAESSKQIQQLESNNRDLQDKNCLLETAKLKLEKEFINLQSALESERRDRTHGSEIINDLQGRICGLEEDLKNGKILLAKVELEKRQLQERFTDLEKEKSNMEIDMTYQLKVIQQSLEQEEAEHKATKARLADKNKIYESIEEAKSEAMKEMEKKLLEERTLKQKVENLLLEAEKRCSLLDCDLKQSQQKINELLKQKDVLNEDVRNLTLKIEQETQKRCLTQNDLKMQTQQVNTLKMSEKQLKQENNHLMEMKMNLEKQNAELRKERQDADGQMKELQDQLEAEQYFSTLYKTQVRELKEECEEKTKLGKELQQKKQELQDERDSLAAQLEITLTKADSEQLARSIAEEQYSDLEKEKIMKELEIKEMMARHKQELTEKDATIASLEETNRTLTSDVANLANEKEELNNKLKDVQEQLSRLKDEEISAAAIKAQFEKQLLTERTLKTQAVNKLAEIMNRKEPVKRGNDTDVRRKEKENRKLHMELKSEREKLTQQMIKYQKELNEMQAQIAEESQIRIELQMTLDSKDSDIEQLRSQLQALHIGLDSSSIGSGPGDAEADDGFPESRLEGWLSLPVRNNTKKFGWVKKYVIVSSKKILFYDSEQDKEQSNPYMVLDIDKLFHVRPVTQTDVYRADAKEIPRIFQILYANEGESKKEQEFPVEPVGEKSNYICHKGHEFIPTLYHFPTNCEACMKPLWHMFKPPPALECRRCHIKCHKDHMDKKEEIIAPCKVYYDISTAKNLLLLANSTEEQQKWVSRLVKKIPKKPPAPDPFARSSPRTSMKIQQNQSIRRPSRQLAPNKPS
5-HT2b-receptor, sequence (P41595 whole entry): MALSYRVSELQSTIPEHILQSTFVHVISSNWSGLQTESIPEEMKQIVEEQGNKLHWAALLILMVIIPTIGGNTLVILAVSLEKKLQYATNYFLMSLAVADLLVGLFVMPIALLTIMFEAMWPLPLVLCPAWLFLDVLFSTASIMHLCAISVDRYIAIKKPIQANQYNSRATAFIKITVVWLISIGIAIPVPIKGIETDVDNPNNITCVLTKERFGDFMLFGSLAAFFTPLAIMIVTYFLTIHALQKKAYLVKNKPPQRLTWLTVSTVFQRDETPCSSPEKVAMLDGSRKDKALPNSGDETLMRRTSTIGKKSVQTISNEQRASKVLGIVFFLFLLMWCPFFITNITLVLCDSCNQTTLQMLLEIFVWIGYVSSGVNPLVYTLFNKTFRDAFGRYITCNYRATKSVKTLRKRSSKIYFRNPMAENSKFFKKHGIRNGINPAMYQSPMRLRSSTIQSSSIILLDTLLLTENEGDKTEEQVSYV

Row | SMILES | inhibitory activity for ROCK2 relative to parent BA-1049 (R) [1] | concentration fully abolishing MLC2 diphosphorylation [2] [µM] | effect on MLC2 diphosphorylation (pMLC2 T18/S19) ([2]; no data shown) | % Negative Binding, ROCK1 [3] [%] | % Negative Binding, GCN [4] [%] | % Negative Binding, AMPK (1 and 2) [5] [%] | Kd ([6]; ROCK2 KD, average of duplicate determinations, Table 5) [nM] | Kd ([6]; ROCK2 Kd, Table 1) [nM] | Kd ([7]; ROCK1 KD, average of duplicate determinations, Table 5) [nM] | Kd ([7]; ROCK1 Kd, Table 1) [nM] | IC50 ([8]; 10 μM ATP, Table 2, read-out: Compound IC50 ROCK2) [nM] | IC50 ([8]; Compound IC50 ROCK2 10 μM ATP, CRO Eurofins, 10 μM ATP) [nM] | IC50 ([8]; Compound IC50 ROCK2 10 μM ATP, CRO Reaction Biology, 10 μM ATP) [nM] | IC50 ([8]; Compound IC50 ROCK2 15 μM ATP, Km ATP 15 μM, Table 3) [nM] | IC50 ([8]; Compound IC50 ROCK2 15 μM ATP, Km ATP 15 μM, Table 7) [nM] | IC50 ([8]; read-out: Compound IC50 ROCK2 10 μM ATP, CRO Eurofins, 10 μM ATP) [nM] | ½ Life [9] [min] | interaction with the 5-HT2b-receptor [10]
1 | C[C@@H](N)C1CCN(S(=O)(=O)c2cccc3c(=O)[nH]ccc23)CC1 [1-hydroxy-BA-1049 (R)] | ½ log more potent as an inhibitor of ROCK2 activity than the parent | ≥ 10 | reduce MLC2 diphosphorylation | 0.35 | 96 | 100 |  |  |  |  |  |  |  |  |  |  |  | 
2 | C[C@@H](N)C1CCN(S(=O)(=O)c2cccc3cnccc23)CC1 [BA-1049 (R)] |  |  |  |  |  |  | 63 | 59 | 99 | 110 | 240 | 240 | 340 | 340 | 340 | 240 | 41.7 | potential antagonistic interaction
